Assay results as given in EP0138020B1, “Anti-adhesive prophylactica and medicines containing a secretolytically active benzylamine derivative” (priority 1983, dated 1985).
Structures can show the parent of a compound that is named as a salt.

Key:
[1] = tested on: Klebsiella pneumoniae Weingarten 14 (Adhäsion an menschlichen Lungen-Epithelzellen ATCC, CCL5, L-132); test: Direct effect in vitro: adhesion of 14C-labelled bacteria to an epithelial cell monolayer; format: cell-based; settings: L132, 3 h, pH 5, read-out: weniger Keime auf den Epithelzellen im Vergleich zur Kontrolle
Description: • a. Der Titer der lebenden Zellen, z.B. von menschlichen Lungen-Epithelzellen wie ATCC, CCL5, L-132, - zu denen nachgewiesenerweise die Verbindungen der obigen allgemeinen Formel I eine sehr hohe Affinität aufweisen, die mit der zum intakten Organ vergleichbar ist - wird mittels Vitalfärbung mit Trypan blue und Auszählung in einer Fuchs-Rosenthal-Zählkammer bestimmt und durch Verdünnung mit Kulturmedium, z.B. Minimum Essential Medium plus 10 % fötales Kälberserum plus 0,1 % Kanamycin, auf 7 x 10⁴ Zellen/ml eingestellt. Je 3 ml dieser Suspension werden in Glasszintillationsfläschchen gefüllt, die durch eine übliche Behandlung für die Anheftung der Epithelzellen auf die Glasoberfläche vorbereitet wurden. Die Inkubation bis zur Ausbildung eines geschlossenen Monolayers erfolgt über 3 Tage bei 37°C und 3 % CO₂. Ein Monolayer entspricht 5 x 10⁶ Zellen pro Szintillationsfläschchen. • b. Die Bakterien, z.B. Klebsiella pneumoniae Weingarten 14, werden in zwei Passagen von je 24 Stunden bei 37° C in Brain Heart Infusion Broth (BHJ) bis zur logarithmischen Wachstumsphase gezüchtet. Während der 2. Passage erfolgt die radioaktive Markierung durch die Zugabe von 1,2-¹⁴C-Azetat zum Nährmedium. Danach wird die Kultur zur Entfernung nichtinkorporierter Radioaktivität zweimal mit PBS (Phosphate buffered saline) gewaschen. […]

[2] = tested on: Klebsiella pneumoniae Weingarten 14; test: In vivo lung infection: bacterial count in lung homogenate; settings: relative to Tylose control = 100; treated 8-10 h before, 15 min before and 4-5 h after infection, preferably i.m. 20-40 mg/kg; lungs preferably 10 h after infection
Experimental: • a. Die Kultur der Bakterien erfolgt wie oben beschrieben, allerdings ohne radioaktive Markierung. • b. Weibliche Albino-Wistar Ratten oder weibliche SPF-Mäuse (Chbb:NMRI) werden i.p., i.v., i.m., p.o., vorzugsweise i.m. 8-10 Stunden vor, 15 Minuten vor und 4-5 Stunden nach der Infektion mit 2-200 mg, vorzugsweise 20-40 mg Benzylamin pro kg Körpergewicht bzw. Tylose (Kontrolle) behandelt. Die Bakteriensuspension (5 x 10⁸-10⁻⁹Bakterien/ml physiologischer Kochsalzlösung) wird in einer Vernebelungskammer mit 0,35 ml/ Minute über 10 Minuten vernebelt. Alternativ werden 10⁶ Keime in 0,05 ml physiologischer Kochsalzlösung i.n. in den Nasengang unter einer Inhalationsnarkose, z.B. mit Chloroform, appliziert. Jeweils ein Kollektiv von Tieren wird 1-10, vorzugsweise 10 Stunden nach der Infektion seziert, die Lungen steril entnommen und die Keime im Lungenhomogenat quantitativ durch Anzüchtung auf McConkey-Agar ermittelt. Die Bakterienkonzentration wird in Keimzahl/g Lunge bestimmt.

[3] = Acute oral toxicity (LD50); settings: mouse, in vivo, Maus, p.o., read-out: LD₅₀
Description: Die Verbindungen der obigen allgemeinen Formel I und deren physiologisch verträgliche Säureadditionssalze sind untoxisch und somit gut verträglich. So weist beispielsweise an der Maus • N-Methyl-N-(2-amino-3,5-dibrom-benzyl)-cyclohexylaminhydrochlorid eine LD₅₀ von >10 g/kg p.o., • N-(2-Amino-3,5-dibrom-benzyl)-trans-4-hydroxy-cyclohexylaminhydrochlorid eine von 2,72 g/kg p.o. und • die übrigen Verbindungen eine von >1 g/kg p.o. auf.

[4] = tested on: Klebsiella pneumoniae Weingarten 14 (Adhäsion an menschlichen Lungen-Epithelzellen ATCC, CCL5, L-132); test: Indirect effect ex vivo: bacterial adhesion to epithelial cells after incubation with lung lavage fractions from treated rats; format: cell-based; settings: rats 25 mg/kg p.o. over 5 days, vs Tylose control animals
Description: • a. Der Titer der lebenden Zellen, z.B. von menschlichen Lungen-Epithelzellen wie ATCC, CCL5, L-132, - zu denen nachgewiesenerweise die Verbindungen der obigen allgemeinen Formel I eine sehr hohe Affinität aufweisen, die mit der zum intakten Organ vergleichbar ist - wird mittels Vitalfärbung mit Trypan blue und Auszählung in einer Fuchs-Rosenthal-Zählkammer bestimmt und durch Verdünnung mit Kulturmedium, z.B. Minimum Essential Medium plus 10 % fötales Kälberserum plus 0,1 % Kanamycin, auf 7 x 10⁴ Zellen/ml eingestellt. Je 3 ml dieser Suspension werden in Glasszintillationsfläschchen gefüllt, die durch eine übliche Behandlung für die Anheftung der Epithelzellen auf die Glasoberfläche vorbereitet wurden. Die Inkubation bis zur Ausbildung eines geschlossenen Monolayers erfolgt über 3 Tage bei 37°C und 3 % CO₂. Ein Monolayer entspricht 5 x 10⁶ Zellen pro Szintillationsfläschchen. • b. Die Bakterien, z.B. Klebsiella pneumoniae Weingarten 14, werden in zwei Passagen von je 24 Stunden bei 37° C in Brain Heart Infusion Broth (BHJ) bis zur logarithmischen Wachstumsphase gezüchtet. Während der 2. Passage erfolgt die radioaktive Markierung durch die Zugabe von 1,2-¹⁴C-Azetat zum Nährmedium. Danach wird die Kultur zur Entfernung nichtinkorporierter Radioaktivität zweimal mit PBS (Phosphate buffered saline) gewaschen. Mit PBS pH 5,5 wird die Kultur im Photometer auf eine Transmission von 35 % eingestellt, was durch Ermittlung der Lebendkeimzahl einem Titer von 5 x 10⁸ Bakterien/ml entspricht. • c. Die Bakterien-Kultur wird abzentrifugiert, PBS abgenommen und durch ein gleiches Volumen Benzylamin-Lösung in PBS pH 5,5 ersetzt. Für den Kontrollwert wird statt der Benzylamin-Lösung PBS pH 5,5 verwendet. Das Nährmedium der Zellen wird abgenommen, der Monolayer (= 5 x 10⁶ Zellen) wird zweimal mit PBS pH 5,5 gespült und mit 1 ml Bakterien-Benzylamin-Lösung (= 5 x 10⁸ Bakterien) überschichtet. Die Inkubation erfolgt 3 Stunden bei 37° C. Danach wird die Bakterien-Benzylamin-Lösung abgenommen und der Monolayer zur Entfernung nicht-adhärenter Bakterien zweimal mit PBS pH 5,5 gespült. Nach Zugabe von Instagel wird die Radioaktivität der gebundenen Bakterien im Szintillationszähler gemessen. • d. Ergebnis: Mit der Verbindung A (50 |g/ml) wurden im Vergleich zur Kontrolle 15 % weniger Keime auf den Epithelzellen nachgewiesen, mit der Verbindung B (50 |g/ml) 20 %.
• a. Die Kultur der Epithelzellen erfolgt wie oben beschrieben. • b. Die Kultur der Bakterien erfolgt wie oben beschrieben. • c. Männliche SPF-Ratten (Chbb:THOM) werden über 5 Tage p.o. mit 25 mg Benzylamin pro kg Körpergewicht bzw. mit Tylose (Kontrolle) behandelt. Durch Bronchoalveolar-Lavage mit isotoner Harnstofflösung wird das Lungenwaschwasser gewonnen und gepoolt. 100 ml davon werden mittels präparativer Isoelektrofokussierung in 30 proteinhaltige Gelfraktionen aufgetrennt. Nach Bestimmung des isoelektrischen Punktes der einzelnen Fraktionen mit einer Oberflächen-Elektrode werden die Proteine mit 3 ml PBS pH 5,5 pro Fraktion vom Gel eluiert. Die 30 Fraktionen werden auf pH 5,5 eingestellt. • d. Die Bakterienkultur wird abzentrifugiert, PBS abgenommen und durch ein gleiches Volumen Lungenwaschwasserfraktion ersetzt. Für den Kontrollwert wird statt der Lungenwaschwasserfraktionen PBS pH 5,5 und isotone Harnstofflösung verwendet. Nach einer Inkubation von 2 Stunden bei 37° C wird die Bakterienkultur erneut abzentrifugiert, Lungenwaschwasserfraktionen bzw. PBS bzw. Harnstoff abgenommen und durch ein gleiches Volumen PBS pH 5,5 ersetzt. Das Nährmedium der Zellen wird abgenommen, der Monolayer (= 5 x 10⁶ Zellen) wird zweimal mit PBS pH 5,5 gespült und mit 1 ml Bakteriensuspension (= 5 x 10⁸ Bakterien) überschichtet. Die Inkubation erfolgt 2 Stunden bei 37° C Danach wird die Bakteriensuspension abgenommen und der Monolayer zur Entfernung nicht-adhärenter Bakterien zweimal mit PBS pH 5,5 gespült. Nach Zugabe von Instagel wird die Radioaktivität der gebundenen Bakterien im Szintillationszähler gemessen. • e. […]

Row | Compound | inhibition at 50 µg/mL [1] | % Keimzahl/g Lunge [2] | LD50 [3] | % Hemmung der Adhäsivität ([4]; Isoelektrischer Punkt der Lungenwaschwasserfraktion 4,0) | % Hemmung der Adhäsivität ([4]; Isoelektrischer Punkt der Lungenwaschwasserfraktion 4,4) | % Hemmung der Adhäsivität ([4]; Isoelektrischer Punkt der Lungenwaschwasserfraktion 4,9) | % Hemmung der Adhäsivität ([4]; Isoelektrischer Punkt der Lungenwaschwasserfraktion 5,2) | % Hemmung der Adhäsivität ([4]; Isoelektrischer Punkt der Lungenwaschwasserfraktion 5,8) | % Hemmung der Adhäsivität ([4]; Isoelektrischer Punkt der Lungenwaschwasserfraktion 6,7) | % Hemmung der Adhäsivität ([4]; Isoelektrischer Punkt der Lungenwaschwasserfraktion 7,6) | % Hemmung der Adhäsivität ([4]; Isoelektrischer Punkt der Lungenwaschwasserfraktion 8,6)
1 | CN(Cc1cc(Br)cc(Br)c1N)C1CCCCC1 [Verbindung A, N-Methyl-N-(2-amino-3,5-dibrom-benzyl)-cyclohexylaminhydrochlorid] | 15% | 49% | > 10000 mg/kg |  |  |  |  |  |  |  | 
2 | Nc1c(Br)cc(Br)cc1CN[C@H]1CC[C@H](O)CC1 [Verbindung B, N-(2-Amino-3,5-dibrom-benzyl)-trans-4-hydroxy-cyclohexylamin-hydrochlorid] | 20% | 31% | 2720 mg/kg | 73% | 65% | 65% | 61% | 39% | 67% | 79% | 72%
